Laboratory results as given in US20140275156A1, “FLAVONOID COMPOUNDS, AND METHODS OF USE THEREOF” (NEUPROTECT PTY LTD, priority 2011, published 2014).

What was measured:
[1] = system: primary neonatal rat cardiac myocytes; experiment: Cytoprotection in primary cardiac myocytes; type: cell-based
Description: (§1) Cardiac myocytes were plated on collagen-coated dishes in serum containing media Dulbecco's modified Eagle's medium/Medium 199 (4:1 v/v) containing 10% (v/v) horse serum, 5% (v/v) fetal calf serum, and penicillin/streptomycin (100 units/ml). Murine skeletal myoblast (C2C12) or rat cardiac myoblasts (H9C2) were maintained in DMEM supplemented with 10% (v/v) fetal calf serum and 100 U/ml penicillin-streptomycin. Cells were incubated overnight at 37° C. in a 5% CO2 incubator prior to the experiment. Cells were pre-treated with flavanols for 30 min prior to stress treatments. Following pre-treatment, cells were stimulated by the addition of H2O2 (1 mM), sorbitol (0.5 M) or arsenite (300 μM). DMSO (0.1% v/v) was used as a vehicle control. Following treatment, cells were assessed for viability or protein lysates prepared for immunoblot analysis.
(§2) To define the protective and kinase modulatory properties of the compounds of the certain embodiments, their effects in greater detail in vitro. The protection of cultured C2C12 murine myoblasts was evaluated against detrimental stress stimuli using an XTT assay of cell viability. In a time-course of oxidative damage, it was observed that 2 h treatment of H2O2 (0.5 or 1.0 mM) reduced myoblast viability to 38.5+2.0% and 31.9+0.8%, respectively, compared with control cells without H2O2 treatment.

H9C2 rat myoblasts = experiment: Cytoprotection in H9C2 myoblasts; type: cell-based
Description: as §1, §2

[2] = in vitro studies (Wang et al., British Journal of Pharmacology (2004) 142, 443-452); cited from earlier work

Q: For `O=c1c(O)c(-c2ccc(O)c(O)c2)oc2ccccc12` [DiOHF, 3′,4′-dihydroxy flavonol], which protection against stress [1] is on record?
A: Its protection against stress is “similarly protective”.

Q: And the protection against stress (H9C2 rat myoblasts)?
A: The protection against stress was “similarly protective”.

Q: And the “infarct and injury associated with myocardial ischaemia and reperfusion” value [2]?
A: Its value is “reduce infarct and injury”.
